Measurements from article PMC9119314 (Frontiers in Pharmacology, 2022).
Where two headings read alike, the source gives them in different places.

Experiments:
[1] = system: P. knowlesi A1-H.1; assay: In vitro antiplasmodial activity, P. knowlesi A1-H.1 (SYBR Green I); type: cell-based, Plasmodium knowlesi; conditions: 27 h
Description: (§1) P. falciparum (3D7 clone) and P. knowlesi (A1-H.1 clone) were maintained in culture in RPMI 1640 supplemented with 25 mM HEPES, 25 mM NaHCO3, 10 mM D-glucose, 2 mM L-glutamine, 50 mg/L hypoxanthine, 25 mg/L gentamicin sulfate, 5 g/L Albumax II, and 10% (v/v) equine serum (Thermo Fisher Scientific, 26-050-088). The P. falciparum (3D7) and P. knowlesi (A1-H.1) parasites were grown in human A^+ red blood cells (National Health Blood and Transplant, United Kingdom). The parasites were incubated in sealed flasks at 37°C under a culture gas mixture of 96% N2, 3% CO2, and 1% O2. ([van Schalkwyk et al., 2019]). The compounds were initially dissolved in DMSO prior to diluting in RPMI. All experiments were initiated using unsynchronized parasites with both the parasitemia and hematocrit set to 1%. Drug susceptibility assays were set up in 96-well, flat-bottom microplates in a final volume of 200 μL, as described previously ([van Schalkwyk et al., 2017]). The controls were included for the background fluorescence (0% viability; parasites exposed to a supralethal 10 μM chloroquine concentration) and 100% growth (parasites in drug-free wells). The plates were incubated for one complete life cycle (27 h for P. knowlesi or 48 h for P. falciparum in vitro) at 37°C in a modular incubation chamber (Billups-Rothenburg Inc.) under the culture gas. Upon termination of the assay, the plates were stored at −20°C overnight. The SYBR Green I fluorescent method was used to measure parasite survival ([Bennett et al., 2004]; [Smilkstein et al., 2004]). After the microplates were thawed, 100 μL from each well was transferred into a duplicate plate. To this was added 100 μL of SYBR green solution [SYBR Green I (Thermo Fisher Scientific, S7563), diluted 1:5000 in a lysis buffer made of 20 mM Tris, 5 mM EDTA, 0.008% (w/v) saponin, 0.08% (v/v) Triton X-100, pH 7.5]. The plates were stored in the dark for 1 h before fluorescence was read at a 490 nm excitation wavelength and a 520 nm emission wavelength on a Spectramax M3 microplate reader (Molecular Devices) ([van Schalkwyk et al., 2017]). The background fluorescence (wells with parasites at 0% viability) was subtracted from all drug assay wells, and the parasite proliferation was determined as a percentage of the fluorescence in the drug-free control wells.

[2] = system: A2780/cis cells; assay: Chemosensitivity MTT assay, cisplatin-resistant A2780/CIS; type: cell-based, human; conditions: Homo sapiens, A2780cis, 96 h, ± SE, read-out: Activity against A2780/cis cells, IC50
Description: (§2) The chemosensitivity of compounds 3–6 was assessed in the wild-type immortalized human ovarian adenocarcinoma cell line A2780 and its daughter cell lines, which are resistant to the standard cancer chemotherapeutics doxorubicin (A2780/ADR) and cisplatin (A2780/CIS, all cell lines from ECACC, Salisbury, United Kingdom). A modified MTT assay was used ([Shnyder et al., 2008]). Cells (2 × 10^4/ml) were inoculated into each well of a 96-well plate and incubated for 24 h at 37°C in a humidified atmosphere containing 5% CO2. Compounds were then added at a range of concentrations to each well, and the plates were then incubated for a further 96 h. After 96 h, the culture medium was removed and 200 μL of 0.5 mg ml^–1 MTT solution (Sigma) in the complete medium was added to each well. Following a further 4 h incubation, the solution was removed from each well and 150 μL of DMSO was added to solubilize the formazan crystals resulting from MTT conversion. The absorbance values for the resulting solutions were read at 540 nm on an Azure 96-well microplate reader (Azure Biosynstems Inc.), and the cell survival was calculated as the absorbance of treated cells divided by the control.

[3] = system: Hep G2-A16-CD81 cells; assay: Hep G2 cellular toxicity counter-screen (CellTiterGlo); type: cell-based; conditions: HepG2-A16-CD81, no sporozoites, ± SE, read-out: Activity against Hep G cells
Description: (§3) Briefly, 3000 Hep G2-A16-CD81 cells/well were seeded in 1536-well plates (Greiner Bio). 50 nL of the test and control compound diluted in DMSO was added and incubated for 24 h. […] The plates were centrifuged for 5 min at 330 × g and incubated at 37°C. Forty-eight hours post infection, 2 μL of luciferin reagent (Promega BrightGlo) was added to each well, and the luciferase activity was detected using a Perkin Elmer Envision plate reader. […] To counter-screen for cellular toxicity, Hep G2-A16-CD81 cells were seeded as above for the sporozoite liver-stage assay but in the absence of sporozoites. Toxicity measurements were performed by adding Promega CellTiterGlo® (2 μL), followed by luminescence measurements. Curve fitting was done as described above using puromycin (25 μM) as a positive control and DMSO as negative control wells.

[4] = system: T. brucei bloodstream forms (strain 427, derivative 221); assay: In vitro activity against T. brucei bloodstream forms (resazurin); type: cell-based, Trypanosoma brucei; conditions: Trypanosoma brucei, bloodstream forms, hydrochloride salts except 6 (citrate), ± SE; for IC50: 64 h, 48 h + 16 h resazurin
Description: (§4) Bloodstream form T. brucei (strain 427, derivative 221) was maintained in modified Iscove’s medium, as described previously ([Taylor et al., 2013]). […] The parasites were diluted to 1 × 10^4 ml^−1, the compound was added at a range of concentrations, and the plates were incubated at 37°C in 5% CO2 for 48 h. Resazurin was then added to each well, and the plates were incubated for a further 16 h. Fluorescence intensities were determined using a BMG FLUOstar Omega plate reader (excitation 545 nm, emission 590 nm), and data were analyzed using Graph Pad Prism 9.0 software. […]

[5] = as above; type: cell-based, Trypanosoma brucei; conditions: human; SI compared with Hep G cells (Table 1); read-out: Selectivity index (SI), T. brucei compared with cytotoxicity to Hep G cells (converted)
Description: as §4

[6] = system: A2780/WT cells; assay: Chemosensitivity MTT assay, A2780 wild type; type: cell-based, human; conditions: Homo sapiens, A2780, 96 h, ± SE, read-out: Activity against A2780/WT cells, IC50
Description: as §2

[7] = system: P. berghei sporozoites; assay: P. berghei liver-stage assay (sporozoites in Hep G2-A16-CD81 cells, luciferase); type: cell-based, Plasmodium berghei; conditions: for IC50: Plasmodium berghei, HepG2-A16-CD81, sporozoites in Hep G2-A16-CD81 cells, 48 h post infection, ± SE, read-out: Activity against the P. berghei liver stage, IC50
Description: as §3

[8] = system: P. falciparum 3D7; assay: In vitro antiplasmodial activity, P. falciparum 3D7 (SYBR Green I); type: cell-based; conditions: Plasmodium falciparum; chloroquine-sensitive strain 3D7, 48 h; read-out: Activity against P. falciparum 3D7, IC50
Description: as §1

[9] = Plasmodium knowlesi, read-out: Activity against P. knowlesi A1-H.1, IC50, 27 h, ± SD

Row | SMILES | IC50 [1, 9] [nM] | IC50 [2] [nM] | IC50 [3] [nM] | IC50 [4] [nM] | IC90 [4] [nM] | selectivity ratio at 48 h [5] | IC50 [6] [nM] | IC50 [7] [nM] | Selectivity index (SI), P. berghei liver stage with respect to Hep G cells [7] | IC50 [8] [nM] | IC50 ([1]; read-out: Activity against P. knowlesi A1-H.1, IC50, ± SD) [nM]
1 | C[n+]1c2ccccc2cc2[n-]c3c(I)cc(I)cc3c21 [Compound 6, 7,9-diiodocryptolepine] | 1040 ± 220 | 280 ± 50 | 28200 ± 4100 | 59 ± 13 | 114 ± 11 | 478 | 130 ± 70 | 6130 ± 620 | 4.6 | 660 ± 60 | –
2 | C[n+]1c2ccccc2cc2[n-]c3c(Br)cc(Br)cc3c21 [Compound 4, 7,9-Dibromocryptolepine] | 1120 ± 450 | 580 ± 100 | 6790 ± 920 | 28.3 ± 0.5 | 40.3 ± 6.1 | 240 | 200 ± 580 | 5820 ± 260 | 1.17 | 760 ± 60 | –
3 | C[n+]1c2ccccc2cc2[n-]c3ccc(I)cc3c21 [Compound 5, 7-iodocryptolepine] | 110 | 310 ± 190 | 6700 ± 500 | 81.3 ± 2.5 | 113 ± 11 | 82.4 | 60 ± 10 | 14600 ± 420 | 0.46 | 92 ± 20 | 104 ± 40
